Laboratory results: patent US20260158074A1, “A Cell Surface Marker Signature for Arrhythmogenic Pluripotent Stem Cell-Derived Cardiomyocytes” (Western Sydney Local Health District, priority 2022, published 2026)

How the values were obtained:
[1] = tested on: hPSC SCVI8; assay: DEAB-treated cardiomyocyte differentiation, RT-PCR at day 14; assay type: cell-based, human; settings: DEAB 1 nM-100 μM, day 3 to 7 or day 5 to 7
Experimental: hPSC SCVI8 were cultured in Matrigel® (Corning, Cat. No. 354277) coated petri dishes in complete mTeSR™ Plus basal medium (StemCell Technologies, Cat. No. 100-0276) supplemented with 20% (v/v) mTeSR™ Plus 5× supplement (StemCell Technologies) and 0.5% (v/v) streptomycin and penicillin (ThermoFisher, Cat. No. 15140163) at 37° C. in 5% CO2. Media was changed daily and cells passaged when confluency reached approximately 80%.
Cardiomyocyte differentiation was achieved using small-molecule modulators of canonical Wnt signalling as described by Lian et al. (Lian et al. […]; 8(1):162-175), but with the addition of 1 nM, 1 μM or 100 μM 4-diethylaminobenzaldehyde (DEAB, Sigma Merck, Cat. No. D86256) at either day 3 or 5 of differentiation (FIG. 9a.). In brief, hPSC SCVI8 cells from confluent dishes were washed once with Dulbeco's Phosphate Buffered Saline (DPBS) without calcium and magnesium (Lonza, Cat. No. 17-512F), and harvested with TrypLE™ Express Enzyme (ThermoFisher, Cat. No. 12604021) and seeded at a concentration of 3.75×10^5 cells/mL in Matrigel® coated 12-well plates at a volume of 2 mL of complete mTeSR Plus basal medium and 10 μM Y-27632 (RHO/ROCK) inhibitor (StemCell Technologies, Cat. No. 072304). At day 0 of differentiation, cells were washed once using DPBS and transferred to mesoderm induction media that consisted of 6 μM CHIR99021 (GSK3 inhibitor, Tocris, Cat. No. 4423) in complete Roswell Park Memorial Institute (RPMI) 1640 medium, no glutamine (ThermoFisher, Cat. No. 21870092) supplemented with 2% (v/v) B-27 supplement, minus insulin (ThermoFisher, Cat. No. A1895601), 0.5% (v/v) streptomycin and penicillin and 1% (v/v) GlutaMAX™ supplement (ThermoFisher, Cat. No. 35050061). At day 1, CHIR99021 was removed, and cells maintained in complete RPMI minus insulin. At day 3, cells were transferred to cardiac induction media that consisted of 5 μM IWP-2 (Tocris, Cat. No. 3533) in complete RPMI minus insulin and was removed at day 5. At day 7 of differentiation, cells were maintained in complete RPMI supplemented with 2% (v/v) B-27™ Supplement (50×) (ThermoFisher, Cat. No. 17504-001), 0.5% (v/v) streptomycin and penicillin and 1% (v/v) GlutaMAX™ supplement. The media was changed every 2-3 days. Cells were harvested at day 14 for quantitative real-time polymerase chain reaction (RT-PCR).
Total cellular RNA was extracted using the Isolate II RNA Mini Kit (Bioline, Cat. No. BIO-52073) as per the manufacturer's instructions. Reverse transcription was performed with M-MLV Reverse Transcriptase (Promega, Cat. No. M1701) following the manufacturer's protocol. mRNA gene expression was assessed by qPCR using SensiFAST™ SYBR® No-ROX Kit (Meridian Bioscience, Cat. No. BIO-98050) on the Bio-Rad CFX384 Real-Time PCR detection system, with the following PCR conditions: 95° C. for 2 min and 40 cycles of 95° C. for 5 s, 60° C. for 10 s and 72° C. for 15 s, followed by melt curve analysis. All primers used for detection of mRNA expression are outline in Table 3. All data was normalised to the reference gene 18S and normalised to control cells (non-treated PSC-CM).

[2] = tested on: H9 human embryonic stem cell line containing a gCaMP6f reporter, differentiating aggregates; assay: Bioreactor PSC-CM differentiation with retinoic acid signalling activated: cTnT flow cytometry, qPCR, scRNA-seq, beat frequency; assay type: cell-based
Experimental: The H9 cell line containing the gCaMP6f fluorescent calcium reporter was used for all experiments (provided by University of Queensland StemCore facility). Each production run was started from a frozen working cell bank (WCB) cryovial, which was expanded for 8 days in monolayer on matrigel (Corning) using the commercially available medium mTeSR™ Plus (Stem Cell Technologies) (FIG. 1). On Day −3, cells were inoculated at a density of 2.5-3.0×10^5 cells/mL in mTeSR 3D supplemented with 10 μM Y-27632 (TOCRIS Bioscience) and 10 ug/mL of a thermoresponsive polymer pNIPAM conjugated to fibronectin (Chen, X. et al. Tissue Eng Part C Methods 24, 146-157) to form aggregates. A DASbox (Eppendorf) stirred tank bioreactor system was used for aggregate formation and suspensions controlled at 37.2° C., pH 7.2, and 30% DO. At day −1, rapamycin (Merck) was added to a final concentration of 5 nM to enhance survival during differentiation. […]
The expression of cTnT was measured on a Cytoflex Flow Cytometer (Beckman Coulter). […]
Reactions were performed in technical triplicate. Quantitative PCR was performed on the BioRad CFX96 Real-Time PCR Detection System with standard cycling parameters described in the master mix protocol. […] Fold difference in expression was calculated using the comparative CT formula, using GAPDH cDNA from a reference sample. […]

[3] = tested on: PSC-CMs cultured in monolayer; assay: In-vitro spontaneous beat rate of PSC-CMs under anti-arrhythmic drugs; assay type: cell-based, human; settings: 0-100 μM drug concentrations
From the text: FIG. 3. […] A further 2 animals underwent sham infarction and vehicle injection. (b) Representative CMR reconstruction (created with ADAS 3D) merged with epicardial voltage map, used to choose, and annotate border and infarct zone injection sites (black circles). (c) Plot depicting the percentage of time per day each cell (red), cell and drug (blue), or vehicle (green) recipient spent in ventricular arrhythmia over course of study protocol. […] (f) Dose-dependent suppression of PSC-CM contraction rate using amiodarone (dark purple, square) and ivabradine (light purple, circle) in vitro (0-100 μM drug concentrations). […] (h) Telemetry strip from representative cell and anti-arrhythmic recipient showing predominantly sinus rhythm with occasional ventricular ectopic beat. (i-k) Arrythmia parameters from day 0 to day 28 for each subject, grouped by treatment allocation (presented as mean±SEM). […]
Given the automatic mechanism for PSC-CM EAs, the inventors hypothesised that suppressing the rate of graft automaticity below that of the native sinus node would reduce arrhythmia burden. […] To further interrogate this finding the beat rates of sinus rhythm and EAs for each animal were analysed.

With `CCN(CC)c1ccc(C=O)cc1` [DEAB, 4-diethylaminobenzaldehyde] the “expression level of IRX4” value ([1]; RT-PCR day 14) was “no significant difference”, the “expression level of KCNJ3” value ([1]; RT-PCR day 14) was “significant lower expression levels” and the “expression level of MYH7” value ([1]; RT-PCR day 14) was “no significant difference”. The “expression level of MYL2v” value ([1]; RT-PCR day 14) was “no significant difference”, the “expression level of SHOX2” value ([1]; RT-PCR day 14) was “significant lower expression levels” and the “expression level of cTnT” value ([1]; RT-PCR day 14, relative to 18S, versus non-treated PSC-CM) was “no significant difference”.
In the case of `CC1=C(/C=C/C(C)=C/C=C/C(C)=C/C(=O)O)C(C)(C)CCC1` [Retinoic acid, retinoic acid], the cTnT expression ([2]; RA signalling activated day 2 to day 6, n=12, control differentiations in parallel 83.6±7.0%) is reported as 62.4±33.1% and the “rate of spontaneous contraction of aggregates” value ([2]; day 15 before aggregate dissociation, n=6, control 14.2±5.5 b.p.m) is reported as 50.7±16.8 b.p.m.
With `COc1cc2c(cc1OC)CC(=O)N(CCCN(C)C[C@H]1Cc3cc(OC)c(OC)cc31)CC2` [Ivabradine] the “spontaneous beat rate of PSC-CMs” value [3] was “dose-dependent reduction in the spontaneous beat rate”.
In the case of `CCCCc1oc2ccccc2c1C(=O)c1cc(I)c(OCCN(CC)CC)c(I)c1` [amiodarone], the “spontaneous beat rate of PSC-CMs” value [3] is reported as “dose-dependent reduction in the spontaneous beat rate”.
